Reference: PubChem BioAssay (NCI)
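96-well plates; 48 h exposure; 5 concentrations. Endpoints by linear interpolation between flanking doses. Not reached: highest tested concentration assigned. GI50 = concentration required for 50% inhibition of growth. At the TGI there is no net growth.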

What was measured:
Assay in all cases: NCI-60 cell line screen, 48 h
HT29 colon = tested on: HT29 colon
MALME-3M melanoma = tested on: MALME-3M melanoma
KM12 colon = tested on: KM12 colon
OVCAR-3 ovarian = tested on: OVCAR-3 ovarian
OVCAR-4 ovarian = tested on: OVCAR-4 ovarian
IGROV1 ovarian = tested on: IGROV1 ovarian
SF-268 CNS = tested on: SF-268 CNS
SR leukemia = tested on: SR leukemia
NCI-H460 lung = tested on: NCI-H460 lung
OVCAR-5 ovarian = tested on: OVCAR-5 ovarian

Structure (SMILES) | GI50 (HT29 colon) [µM] | TGI (HT29 colon) [µM] | GI50 (MALME-3M melanoma) [µM] | TGI (MALME-3M melanoma) [µM] | GI50 (KM12 colon) [µM] | TGI (KM12 colon) [µM] | GI50 (OVCAR-3 ovarian) [µM] | TGI (OVCAR-3 ovarian) [µM] | GI50 (OVCAR-4 ovarian) [µM] | TGI (OVCAR-4 ovarian) [µM] | GI50 (IGROV1 ovarian) [µM] | TGI (IGROV1 ovarian) [µM] | GI50 (SF-268 CNS) [µM] | TGI (SF-268 CNS) [µM] | GI50 (SR leukemia) [µM] | TGI (SR leukemia) [µM] | GI50 (NCI-H460 lung) [µM] | TGI (NCI-H460 lung) [µM] | GI50 (OVCAR-5 ovarian) [µM] | TGI (OVCAR-5 ovarian) [µM]
C=CC(=O)N1CCCC(n2nc(-c3ccc(Oc4ccccc4)cc3)c3c(N)ncnc32)C1 (stereo not given) | 5.93 | 21 | 12.4 | 29.3 | 8.73 | 22 | 6.23 | 20.4 | 7.12 | 21.2 | 0.643 | 14.6 | 3.12 | 17.2 | 9.28 | 34.1 | 14.3 | 31 | 13.1 | 27.6
Clc1nc(Oc2ccccc2)nc(-c2cn(-c3ccccc3)c3ccccc23)n1 | 3.36 | 11.5 | 1.89 | 4.82 | 7.51 | 19.9 | 3.37 | 10.2 | 6.4 | 18.7 | 2.45 | 6.26 | 4.28 | 13.9 | 0.241 | 0.849 | 21.4 | > 71.7 | 22.9 | 52.7
C[CH2][Sn]1([CH2]C)[O]C(=O)[O][Sn]([CH2]C)([CH2]C)[O]1 | 25.6 | > 62.2 | 16 | 29.9 | > 61.5 | > 100 | 23.5 | > 61.8 | > 100 | > 100 | > 57.6 | > 87.8 | 18.9 | 36.6 | 30.8 | > 100 | > 60.3 | > 100 | > 45.8 | > 59.5
COc1cc(OC)c(/C=C/c2ccc3ccccc3[n+]2C)c(OC)c1 | 0.28 | 1.57 | 0.691 | 5.38 | 0.322 | 1.99 | 0.56 | 3.9 | 0.659 | 15.8 | 1.21 | 13.6 | 0.501 | 7.61 | 0.35 | 2.68 | 0.577 | 2.72 | 3.09 | 25.2
O=C(O)C1CCc2ccc3ccccc3c2C1c1cccc2ccccc12 (stereo not given) |  | 32.7 |  | 50.4 |  | 37.8 |  | 29.8 |  | 90.9 |  | 63.3 |  | 91.7 |  | 49.9 |  | 38.2 |  | 37.9
COC(=O)CCC/C=C\C[C@H]1C=CC(=O)/C1=C/C[C@@H](O)CCc1cccc(C(F)(F)F)c1 | 2.64 | 6.06 | 2.47 | 8.1 | 1.9 | 4.23 | 1.97 | 4.08 | 3.47 | 14.1 | 3.71 | 13.9 | 3.09 | 11.4 | 0.975 | 5.53 | 2.35 | 5.57 | 3.79 | 12.7
CN1CCN(CCSC2Cc3cc(Cl)ccc3Sc3ccccc32)CC1 (stereo not given) |  | 3.45 |  | 5.8 |  | 20.1 |  | 16.5 |  | 18.2 |  | 25.6 |  | 25.6 |  | 19.9 |  | 16.1 |  | 18.2
COc1ccc2c(c1)C(=O)CC(N)C2 (stereo not given) |  | > 100 |  | > 100 |  | > 100 |  | > 100 |  | > 100 |  | > 100 |  | > 100 |  | > 100 |  | > 100 |  | > 100
